Residues, ends and D or L forms follow the SMILES beside them. *: point of attachment. Octanoyl = CCCCCCCC(=O)*
Legend:
[1] = molecular target: T1, cathepsin L (Homo sapiens, UniProt P07711); test: in vitro protease inhibition assay, cathepsin L; assay type: biochemical; settings: z-FR-AMC substrate, MES buffer pH 5.5
T1 construct: purchased R&D Systems
Experimental: (§1) Protease Inhibition Assays. Detailed information about synthesis of N-Boc-protected peptidyl aldehydes and their deprotection for protease inhibition activity tests are available in the Extended Experimental Procedures. For protease inhibition assays, all fluorescence measurements were made on a Biotek H4 instrument. Buffering reagents were purchased from Sigma-Aldrich and sterile-filtered prior to use. Compounds and substrates were diluted from DMSO stocks into water/DMSO such that final DMSO plate concentrations were below 5% during the reaction. All reactions were started by the addition of substrate to the enzyme/compound solutions (see also Extended Experimental Procedures).
Deprotection of Boc-protected dipeptide aldehyde compounds. All the deprotection experiments were performed in an anaerobic chamber. Trifluoroacetic acid (TFA) was added to the purified Boc-protected dipeptidyl aldehydes. 1 μL of the reaction was added to 100 μL 80% DMSO in ddH2O and a 0.5 μL portion of the solution was examined by an Agilent 6530 qTOF LC/MS. For preparing dipeptide aldehyde solution for protease inhibition assays, the deprotection reaction was left at 30° C. for 15 mins. Then ddH2O was added to quench the reaction and give a 2.5 mM peptidyl aldehydes in 1% TFA solution. Some side products like isobutylene and their corresponding imine and pyrazinone products have poor water solubility. […]

[2] = molecular target: T2, cathepsin S (Homo sapiens, UniProt P25774); test: in vitro protease inhibition assay, cathepsin S; assay type: biochemical; settings: z-FR-AMC substrate, MES buffer pH 5.5, read-out: activity against cathepsin S
T2 construct: purchased R&D Systems
T2 sequence (P25774 115-331): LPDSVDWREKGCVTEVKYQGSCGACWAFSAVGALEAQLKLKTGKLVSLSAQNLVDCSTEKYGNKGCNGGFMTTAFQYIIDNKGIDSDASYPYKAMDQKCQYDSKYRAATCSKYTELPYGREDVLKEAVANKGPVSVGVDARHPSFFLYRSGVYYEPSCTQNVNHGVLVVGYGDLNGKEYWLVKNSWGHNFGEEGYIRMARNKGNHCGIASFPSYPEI
Experimental: as §1
Detailed procedures for protease inhibition assays. Enzymes: cathepsin L, cathepsin B, cathepsin C and cathepsin S were purchased from R&D Systems trypsin, chymotrypsin and calpain I were purchased from Sigma-Aldrich. Calpain I was also purchased from Abcam. Human 20s proteasome was purchased from Boston Biochem.
Substrates: z-FR-AMC, Boc-IEGR-AMC, Suc-ALPF-AMC and GR-AMC were purchased from Bachem. Suc-LLVY-AMC was purchased from Anaspec. Substrates were used without further purification.
Inhibitors: Carfilzomib was a generous gift from Onyx Pharmaceuticals and was used as a positive control in the proteasome inhibition assay. […]

[3] = molecular target: T3, cathepsin S (CTSS) (Homo sapiens, UniProt P25774); test: competitive isoTOP-ABPP, blockade of IA-alkyne labeling, cathepsin S; assay type: binding
T3 construct: We treated membrane preparations of the human innate immune (monocytic) cell line THP-1 with the bgc35 product Phe-Phe-H; endogenous in cells; host or cells: THP-1 membrane fraction
T3 sequence (P25774 115-331): as above
Excerpt: (§2) The proteases we assayed were chosen based on literature precedent. To determine the target of the peptide aldehydes in an unbiased way, we applied a quantitative chemical proteomic method, termed isoTOP-ABPP (Weerapana et al. 2010, Backus et al., 2016) to measure the global interactions of a representative dipeptide aldehyde, bgc35 product Phe-Phe-H, with cysteine residues in the human cell lysates. We treated membrane preparations of the human innate immune (monocytic) cell line THP-1 with the bgc35 product Phe-Phe-H or vehicle, and then these samples were treated with a cysteine reactive iodoacetamide-alkyne (IA-alkyne) probe and conjugated to an isotopically differentiated (heavy or light, respectively) TEV protease-cleavable biotin tag using copper-catalyzed azide-alkyne cycloaddition (CuAAC or click) chemistry. Vehicle- and peptide-treated samples were then combined, enriched, subjected to sequential trypsin and TEV digests and evaluated by LC-MS/MS. Site-specific blockade of IA-alkyne labeling as measured by quantitation of heavy/light MS1 chromatographic peaks designates cysteine residues that are targeted by Phe-Phe-H (heavy/light ratios, or R values>5; line, FIG. 3D). […]

[4] = molecular target: T4, cathepsin H (CTSH) (Homo sapiens, UniProt P09668); test: competitive isoTOP-ABPP, blockade of IA-alkyne labeling, cathepsin H; assay type: binding; settings: THP-1 membranes, 250 nM Phe-Phe-H
T4 construct: We treated membrane preparations of the human innate immune (monocytic) cell line THP-1 with the bgc35 product Phe-Phe-H; endogenous in cells; host or cells: THP-1 membrane fraction
T4 sequence (P09668 98-335): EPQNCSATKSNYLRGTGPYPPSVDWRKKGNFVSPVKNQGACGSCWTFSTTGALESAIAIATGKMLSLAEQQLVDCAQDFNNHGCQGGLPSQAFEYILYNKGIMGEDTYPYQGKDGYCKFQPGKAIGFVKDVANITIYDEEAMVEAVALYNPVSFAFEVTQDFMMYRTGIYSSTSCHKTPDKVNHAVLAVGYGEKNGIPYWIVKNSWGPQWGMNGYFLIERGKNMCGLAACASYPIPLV
Excerpt: as §2

[5] = molecular target: T5, cathepsin L (CTSL1) (Homo sapiens, UniProt P07711); test: competitive isoTOP-ABPP, blockade of IA-alkyne labeling, cathepsin L; assay type: binding; settings: THP-1 membranes, 250 nM Phe-Phe-H
T5 construct: We treated membrane preparations of the human innate immune (monocytic) cell line THP-1 with the bgc35 product Phe-Phe-H; endogenous in cells; host or cells: THP-1 membrane fraction
T5 sequence (P07711 114-333): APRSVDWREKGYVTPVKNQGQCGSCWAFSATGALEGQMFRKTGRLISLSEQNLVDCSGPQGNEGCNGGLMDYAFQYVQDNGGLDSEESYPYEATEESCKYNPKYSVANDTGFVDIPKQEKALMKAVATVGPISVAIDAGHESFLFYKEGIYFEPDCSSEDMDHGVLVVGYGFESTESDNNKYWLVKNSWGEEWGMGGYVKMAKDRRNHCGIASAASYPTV
Excerpt: as §2

[6] = system: more than 3500 total quantified cysteines across three different human cell proteomes; test: competitive isoTOP-ABPP, proteome-wide selectivity over non-cathepsin cysteines; assay type: binding; settings: more than 3500 quantified cysteines, no additional targets
Excerpt: as §2

[7] = molecular target: T6, cathepsin Z (CTSZ) (Homo sapiens, UniProt Q9UBR2); test: competitive isoTOP-ABPP, blockade of IA-alkyne labeling, cathepsin Z; assay type: binding
T6 construct: We treated membrane preparations of the human innate immune (monocytic) cell line THP-1 with the bgc35 product Phe-Phe-H; endogenous in cells; host or cells: THP-1 membrane fraction
T6 sequence (Q9UBR2 62-303): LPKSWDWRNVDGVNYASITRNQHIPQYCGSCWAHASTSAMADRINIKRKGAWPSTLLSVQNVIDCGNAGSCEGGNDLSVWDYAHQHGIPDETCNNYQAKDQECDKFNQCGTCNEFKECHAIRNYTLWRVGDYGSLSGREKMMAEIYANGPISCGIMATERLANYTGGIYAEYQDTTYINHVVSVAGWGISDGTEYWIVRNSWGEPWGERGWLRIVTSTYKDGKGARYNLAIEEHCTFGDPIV
Excerpt: as §2

[8] = molecular target: T7, cathepsin C (CTSC) (Homo sapiens, UniProt P53634); test: competitive isoTOP-ABPP, blockade of IA-alkyne labeling, cathepsin C; assay type: binding
T7 construct: endogenously expressed CTSC is post-translationally regulated; endogenous in cells; host or cells: THP-1 membrane fraction
T7 sequence (P53634 25-463): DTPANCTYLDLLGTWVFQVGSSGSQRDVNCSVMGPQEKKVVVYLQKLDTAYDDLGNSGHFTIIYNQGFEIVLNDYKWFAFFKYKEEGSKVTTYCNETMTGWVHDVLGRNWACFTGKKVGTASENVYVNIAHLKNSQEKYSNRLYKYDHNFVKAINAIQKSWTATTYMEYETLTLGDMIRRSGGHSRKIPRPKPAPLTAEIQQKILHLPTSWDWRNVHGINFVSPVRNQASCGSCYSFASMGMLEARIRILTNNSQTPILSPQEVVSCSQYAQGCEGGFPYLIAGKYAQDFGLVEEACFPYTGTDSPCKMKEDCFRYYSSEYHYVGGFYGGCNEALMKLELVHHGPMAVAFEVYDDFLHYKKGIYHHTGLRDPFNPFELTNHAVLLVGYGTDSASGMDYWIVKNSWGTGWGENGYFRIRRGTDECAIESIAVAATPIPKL
Excerpt: as §2

[9] = molecular target: T8, cathepsin B (CTSB) (Homo sapiens, UniProt P07858); test: competitive isoTOP-ABPP, blockade of IA-alkyne labeling, cathepsin B; assay type: binding; settings: THP-1 membranes, 250 nM Phe-Phe-H
T8 construct: We treated membrane preparations of the human innate immune (monocytic) cell line THP-1 with the bgc35 product Phe-Phe-H; endogenous in cells; host or cells: THP-1 membrane fraction
Excerpt: as §2

[10] = THP-1 and other human cell proteomes (Ramos, H1975), 25 μM Phe-Phe-H
[11] = THP-1 membranes, 250 nM Phe-Phe-H

T1 sequence (P07711 114-333): as the sequence (P07711 114-333) above

Compound: CCCCCCCC(=O)N[C@@H](CCSC)C(=O)N[C@H](C=O)Cc1ccccc1 [Compound 16, N-octanoyl-Met-Phe-H] (Octanoyl-Met-Phe-aldehyde)
- inhibitory activity (IC50) against cathepsin L [1]: undetectable activity
- IC50 [2]: 13 nM

Compound: N[C@@H](Cc1ccccc1)C(=O)N[C@H](C=O)Cc1ccccc1 [Phe-Phe-H] (H-Phe-Phe-aldehyde)
- heavy/light MS1 ratio (R value), CTSS [3, 10]: > 5
- heavy/light MS1 ratio (R value), CTSS [3, 11]: < 2.0
- heavy/light MS1 ratio (R value), CTSH [4]: < 2.0
- heavy/light MS1 ratio (R value), CTSL1 catalytic cysteine Cys138 [5]: > 20
- heavy/light MS1 ratio (R value), additional (non-cathepsin) cysteines [6]: < 2.0
- heavy/light MS1 ratio (R value), CTSZ [7, 10]: > 5
- heavy/light MS1 ratio (R value), CTSZ [7, 11]: < 2.0
- heavy/light MS1 ratio (R value), CTSC [8, 10]: > 5
- heavy/light MS1 ratio (R value), CTSC catalytic cysteine Cys258 [8, 11]: > 2.78
- heavy/light MS1 ratio (R value), CTSB [9]: < 2.0
